Test results reported in ChEMBL document CHEMBL3988442, “University of Dundee, Small-Polar-MMV Screening Library” (2021).
“And” between values parts separate entries of the source, which are not always exact repeats. Identical values can stand only once.

Assays:
Lysine--tRNA ligase = Lysine--tRNA ligase (Plasmodium falciparum (isolate 3D7), UniProt Q8IDJ8); test: Pf-KRS-1 (Lysyl-RNA Synthetase-1, KRS-1, cytosolic KRS) from Plasmodium falciparum. Inhibitor assay, 384 well plate, luminescence read.; format: functional
Lysine--tRNA ligase, sequence (Q8IDJ8 whole entry): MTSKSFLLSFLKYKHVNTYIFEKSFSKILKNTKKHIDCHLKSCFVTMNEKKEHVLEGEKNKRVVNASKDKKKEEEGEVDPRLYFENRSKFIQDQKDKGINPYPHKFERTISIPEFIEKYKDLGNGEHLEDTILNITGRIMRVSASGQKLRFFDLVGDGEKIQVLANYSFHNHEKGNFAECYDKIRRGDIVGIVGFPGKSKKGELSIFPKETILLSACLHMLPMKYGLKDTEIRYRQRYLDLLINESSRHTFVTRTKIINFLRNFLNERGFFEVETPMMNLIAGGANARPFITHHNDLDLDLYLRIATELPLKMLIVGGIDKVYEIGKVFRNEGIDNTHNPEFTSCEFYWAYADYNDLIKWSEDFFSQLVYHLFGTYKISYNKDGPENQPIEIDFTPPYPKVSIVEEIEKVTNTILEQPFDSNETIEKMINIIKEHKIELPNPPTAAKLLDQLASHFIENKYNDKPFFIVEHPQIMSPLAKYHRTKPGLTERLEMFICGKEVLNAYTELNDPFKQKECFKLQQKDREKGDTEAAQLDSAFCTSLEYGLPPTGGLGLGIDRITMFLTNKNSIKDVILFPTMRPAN

[1] = biological target: T1, Coenzyme A biosynthesis bifunctional protein CoaBC (Mycobacterium tuberculosis (strain ATCC 25618 / H37Rv), UniProt P9WNZ1); test: Biomol Green assay for MtCoaBC inhibitor, OD650 read; format: functional
T1 sequence (P9WNZ1 whole entry): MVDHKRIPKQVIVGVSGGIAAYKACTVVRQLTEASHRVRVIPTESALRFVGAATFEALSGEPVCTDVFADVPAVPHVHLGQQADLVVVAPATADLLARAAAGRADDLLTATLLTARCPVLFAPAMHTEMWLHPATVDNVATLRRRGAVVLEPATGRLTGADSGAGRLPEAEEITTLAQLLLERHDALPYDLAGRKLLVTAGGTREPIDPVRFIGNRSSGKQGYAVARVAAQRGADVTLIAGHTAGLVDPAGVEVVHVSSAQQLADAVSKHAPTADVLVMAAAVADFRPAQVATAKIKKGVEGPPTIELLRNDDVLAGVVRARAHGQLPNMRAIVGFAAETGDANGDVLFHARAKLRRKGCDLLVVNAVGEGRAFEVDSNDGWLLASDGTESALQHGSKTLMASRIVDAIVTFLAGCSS

[2] = In vitro enzyme assay to detect hydrolysis of chlorophenol red-beta-D-[…] directly proportional to the number of Toxoplasma stably expressing beta-galactosidase; format: functional, organism-based, Toxoplasma gondii
Leishmania donovani = test: Leishmania intramacrophage assay; format: functional, organism-based; details: Leishmania donovani
Histidine--tRNA ligase = biological target: T2, Histidine--tRNA ligase (Leishmania infantum, UniProt A4I591); test: Leishmania infantum Histidine tRNA synthetase (LdHisRS); format: functional
T2 sequence (A4I591 whole entry): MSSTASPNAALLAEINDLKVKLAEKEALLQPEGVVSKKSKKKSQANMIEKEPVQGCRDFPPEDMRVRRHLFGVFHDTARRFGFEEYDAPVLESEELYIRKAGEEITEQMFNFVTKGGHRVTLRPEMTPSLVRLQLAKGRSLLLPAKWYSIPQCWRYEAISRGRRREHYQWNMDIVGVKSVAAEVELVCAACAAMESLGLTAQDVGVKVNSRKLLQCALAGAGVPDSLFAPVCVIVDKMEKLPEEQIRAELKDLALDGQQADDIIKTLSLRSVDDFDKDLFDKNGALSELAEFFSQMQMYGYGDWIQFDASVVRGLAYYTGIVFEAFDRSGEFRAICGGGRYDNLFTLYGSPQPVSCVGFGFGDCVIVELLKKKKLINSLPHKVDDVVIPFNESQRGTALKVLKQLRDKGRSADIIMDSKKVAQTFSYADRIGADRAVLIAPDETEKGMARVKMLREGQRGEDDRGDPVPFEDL

SMILES	IC50 (Lysine--tRNA ligase) [µM]	further results
c1ncc2c(n1)CN(CC1CCCCO1)CC2 (stereo unspecified)	32.7	
O=C1CC(c2ccc(O)cc2)c2c(c(C(=O)O)cn2-c2ccccc2)N1 (stereo unspecified)	> 50.1	
COc1ccccc1CNc1ccc2nncn2n1	> 50.1	
O=C(Cc1ccc(Cl)s1)Nc1ccc2c(c1)C(=O)NC2=O	> 50.1	
O=C(NCc1cccs1)NCC(O)(c1cccs1)C1CC1 (stereo unspecified)	> 50.1	
O=C(NCC1(O)CCCC1)c1ccc2nsnc2c1	> 50.1	
Cc1ccc(-n2nnc(C(=O)NCC3CCCCC3)n2)cc1	> 50.1	
COc1ccc(-n2nnc(C(=O)NCC3CCCCC3)n2)cc1	> 50.1	
COc1ccc(C(=O)N2CCO[C@H]3[C@@H](OCC4CC4)CC[C@@H]32)cc1F	> 50.1	
O=c1ccc2c(n1Cc1cccnc1)CCC(NCc1cccnc1)C2 (stereo unspecified)	> 50.1	
CCn1cc2c(n1)C(COCC1CC1)CN(C(=O)c1cc(C)on1)C2 (stereo unspecified)	> 50.1	
CCOCC1CN(C(=O)c2cnoc2C)Cc2cn(CC3CC3)nc21 (stereo unspecified)	> 50.1	
CS(=O)(=O)N1C[C@H](C(=O)Nc2cnccn2)C[C@H]2OCC[C@H]21	> 50.1	
CCCS(=O)(=O)N1CCOC2(COCCN(C(C)=O)C2)C1 (stereo unspecified)	> 50.1	
CCN(C)C(=O)c1cc(-c2ccn(C(C)C)n2)n2ccccc12	> 50.1	
CN1C(=O)CC2(CCN(S(=O)(=O)c3cccs3)CC2)c2ccccc21	> 50.1	
O=C(c1cnccn1)N1C[C@@H](c2ccccc2)[C@@]2(CCNC2=O)C1	> 50.1	
CN1C(=O)CC2(CCN(S(=O)(=O)C3CC3)CC2)c2ccccc21	> 50.1	
COCC1CN(C(=O)Cc2ccccn2)Cc2ncn(C)c21 (stereo unspecified)	> 50.1	
COCCCN1CC2(CCCCN2C(=O)C2CCCCC2)CC1=O (stereo unspecified)	> 50.1	
CN(Cc1cccs1)C1CCC[C@@H]2CN(C(=O)c3cccn3C)C[C@H]12 (stereo partly specified)	> 50.1	
Cc1nc(NC(C)C)nc2c1CN(Cc1nccn1C)CC2	> 50.1	

SMILES	IC50 (Lysine--tRNA ligase) [µM]	further results
O=c1[nH]c2c(c(=O)n1C1CCCCC1)CCC2Nc1ccccn1 (stereo unspecified)	> 50.1	
Cc1cccc(NC2CCc3c2[nH]c(=O)n(C2CCCCC2)c3=O)c1C (stereo unspecified)	2.45	
Cn1c(=O)c2c(n3ncnc13)NC(=O)CC2c1ccc(F)cc1 (stereo unspecified)	> 50.1	
O=C1CC(c2ccc(C(=O)O)cc2)c2ncn(-c3cccc(F)c3)c2N1 (stereo unspecified)	> 50.1	
O=c1[nH]c2c(c(=O)n1C1CCCCC1)CCC2NCCc1ccccc1 (stereo unspecified)	1.75	
O=c1[nH]c2c(c(=O)n1C1CCCCC1)CCC2Nc1ccccc1 (stereo unspecified)	> 50.1	
O=C([C@H]1CCCO1)N1CCc2ncnc(NC3CC3)c2CC1	> 50.1	
Cc1ccc(N2CC[C@H](OCC3CC3)[C@@H]2Cc2cnn(C)c2)nn1	> 50.1	
CNc1ncc2c(n1)CN(C1CCCC1)C2=O	> 50.1	
CC1CCC(N2Cc3nc(N)ncc3C2=O)CC1 (stereo unspecified)	> 50.1	
CC(C)CN1Cc2nc(N)ncc2C1=O	35.6	
CSc1ncnc(NCc2cccs2)c1C#N	> 50.1	
CCn1cc(-c2cc(C(F)(F)F)nc(NC3CCCC3)n2)c(C)n1		IC50 [1]: > 30.2 µM; pIC50 [2]: 4.783; IC50 ([2]; Toxoplasma gondii): 17.8 µM; IC50 (Leishmania donovani): > 50.1 µM
Cc1sc(Oc2ccccc2Cl)nc1C(=O)O	> 50.1	
O=C(Cc1ccsc1)N1CCCC(c2n[nH]c3ncccc23)C1 (stereo unspecified)	> 50.1	
Cn1c(CN2CCCc3cc(F)cc(F)c32)cc(=O)n(C)c1=O	> 50.1	
O=C(c1c[nH]nn1)N1CCCC1C1CCCCC1 (stereo unspecified)	42.3	
Cc1ncc2c(n1)CN(CC1CCCCO1)CC2 (stereo unspecified)	35.9	
Cc1ccc(C(=O)NCc2cc(F)ccc2N2CCCN(C)CC2)o1	> 50.1	
CC1(C)CCN1C(=O)c1cc(F)cc2[nH]cnc12	> 50.1	
CC(O)(CNc1ccc(Cl)c(C#N)n1)c1ccsc1 (stereo unspecified)	44	
Cn1cc(C(C)(O)CNc2ccc(Cl)c(C#N)n2)cn1 (stereo unspecified)	> 50.1	

SMILES	IC50 (Lysine--tRNA ligase) [µM]	further results
Cc1cc(NC(=O)CCCn2ccnc2C)nc(C(C)C)n1	> 50.1	
O=C(NCC1CCC1)c1ccnc(-n2ccnc2)c1	> 50.1	
CCC1CCC(CNC(=O)c2c[nH]c(=O)c(Cl)c2)CC1 (stereo unspecified)	> 50.1	
CCOC(=O)C1CCCN(Cc2cc(C#N)n(C)c2C)C1 (stereo unspecified)	> 50.1	
O=C(NCC1(O)CCSCC1)c1ccoc1	> 50.1	
COc1cc(NC(=O)N(C)Cc2ccc(Br)o2)ncn1	> 50.1	
CC(C)C(=O)NC1CCN(c2cccc(OC(F)(F)F)c2)C1=O (stereo unspecified)	> 50.1	
O=C(C[S+]([O-])Cc1c(Cl)cccc1Cl)N1CCc2sccc2C1 (stereo unspecified)	> 50.1	
O=C(c1nc(=O)[nH][nH]1)N1CCC2(CCCCC2)C1	> 50.1	
FC(F)(F)COCCN1CCc2cncnc2C1	> 50.1	
CC(Nc1ccn(Cc2ccccn2)n1)C(=O)NC(C)(C)C (stereo unspecified)	> 50.1	
O=C1COc2cc(C(=O)NCc3ccc(Cl)s3)ccc2N1	17.5	
c1cnn(C2CN(c3ncnc4[nH]ccc34)C2)c1	> 50.1	
Cc1cc(C)n(C2CN(c3ncnc4[nH]ccc34)C2)n1	> 50.1	
O=C(NCc1ccc(Cl)s1)c1ccc(N2CCOC2=O)cc1	> 50.1	
Cn1cc(NC(=O)c2ccccn2)cc(Br)c1=O	> 50.1	
O=C(COCc1ccccc1Cl)N1CCN(c2cnccn2)CC1	> 50.1	
CCCC(=O)N1CCCCC1C(=O)Nc1ccc(-c2nnc[nH]2)cc1 (stereo unspecified)	> 50.1	
CC(C)CN1C(=O)C2(CCCC2)NC1c1cn(C)c(=O)n(C)c1=O (stereo unspecified)	> 50.1	
CO[C@H]1CC[C@H]2[C@H]1OCCN2C(=O)CC1=CCCCC1	> 50.1	
CCc1cc2cc(OC)c(OC)cc2nc1SCCN1CCCCC1	> 50.1	
CC(C)NC(=O)N1CCc2c(CNc3ncccn3)cncc2C1	> 50.1	

SMILES	IC50 (Lysine--tRNA ligase) [µM]	further results
COc1cc(CNC(C)Cn2ccnc2)cc2c1OCO2 (stereo unspecified)	> 50.1	
COc1cc(CNCCn2ccnc2)cc2c1OCO2	> 50.1	
COCCN1CCOCC12CCN(c1ccc(C#N)cc1)CC2	> 50.1	
O=S(=O)(NC1CCC12CCN(CC1CCOCC1)CC2)c1ccccc1 (stereo unspecified)	> 50.1	
CN(C)Cc1cnc2n1CCN(C(=O)Cc1ccc(F)cc1)CC2	> 50.1	
O=C(CC1CCCC1)N1CC[C@H]2[C@H]1CCN2c1nncs1	> 50.1	
Cc1cnc(N2CCN(C)c3ncccc3C2)nc1	> 50.1	
O=C(O)c1c(-c2ccoc2)ncc2c1CCN(C1CCOC1)C2 (stereo unspecified)	> 50.1	
Cc1noc(C)c1CN1CCOC2(CCCN(c3nncs3)C2)C1 (stereo unspecified)	> 50.1	
CC(=O)N1CC(=O)N(c2ccsc2)CC12CCN(Cc1ccccn1)C2 (stereo unspecified)	> 50.1	
CCOCC1CN(Cc2ccc(OC)cc2)Cc2nn(CC3CC3)cc21 (stereo unspecified)	> 50.1	
CNC(=O)c1ccc2c(c1)C1(CCN(CC(C)C)CC1)C(=O)N2	> 50.1	
O=C([C@@H]1C[C@H]2[C@H](CCN2Cc2nccs2)O1)N1CCOCC1	> 50.1	
COCCCN1CCCC12CCN(Cc1cccnc1OC)CC2	> 50.1	
Cc1ccc(CN2C[C@@H]3CN(CC4CCOCC4)CCO[C@@H]3C2)s1	> 50.1	
O=C(O)CN1CCC(F)(F)C2(CCN(c3ccccc3)C2)C1 (stereo unspecified)		IC50 [1]: > 30.2 µM; IC50 (Histidine--tRNA ligase): 43.6 µM and 39.5 µM; IC50 (Leishmania donovani): > 50.1 µM
Cc1cc(C(=O)N2CCCC3(COCCN(CCN(C)C)C3)C2)no1 (stereo unspecified)	> 50.1	
CN1[C@H](Cn2cncn2)C[C@@H]2CN(Cc3cccc(C#N)c3)CC[C@@H]21	> 50.1	
O=C(Nc1cccnc1)[C@H]1C[C@@H]2CCN(c3nncs3)C[C@H]2O1	> 50.1	
Cc1noc(C)c1CN1CC[C@H]2[C@H]1CCN2CC1CCOCC1	> 50.1	
